Results published in ChEMBL document CHEMBL1135895, “Stereochemistry at phosphorus of the reaction catalyzed by myo-inositol monophosphatase” (J Med Chem, 2002).

Assays:
[1] = IMPase-catalyzed hydrolysis at pH 9.00 at 25 degrees Centigrade.; format: ADME; settings: for Km / k cat: buffer
[2] = Oxidation catalyzed by inositol dehydrogenase at pH 9.13.; format: ADME

| Km [2] [µM] | k cat [2] [s⁻¹] | k cat/Km [2] [M⁻¹ s⁻¹] | SMILES | Ki [1] [µM] | Km [1] [µM] | k cat [1] [s⁻¹] |
| --- | --- | --- | --- | --- | --- | --- |
|  |  |  | OC1C(O)C(O)C(OP(O)(O)=S)C(O)C1O (stereo not drawn) | 1140 | 2070 | 0.185 |
| 580 | 13.3 | 23100 | O[C@H]1[C@H](O)[C@@H](O)[C@H](O)[C@@H](O)[C@H]1O [INOSITOL] |  |  |  |
|  |  |  | O=P(O)(O)OC1C(O)C(O)C(O)C(O)C1O (stereo not drawn) |  | 110 | 0.48 |
